Laboratory results from US6358885B1, “Substituted phenylheterocyclic herbicides” (Mississippi State University, priority 1992, dated 2002).

Columns and labels:
[1] = test system: bedstraw; test: Test B preemergence/postemergence greenhouse plant response rating 0 to 10; format: in vivo, Galium aparine; conditions: 0 to 10 scale
Summary of the method: (§1)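 Postemergence treatment of plants two to eighteen cm tall ran alongside preemergence treatment of planted seed, each using compound in a non-phytotoxic solvent.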

[2] = test system: chickweed; test: as above; format: in vivo, Stellaria media; conditions: 0 to 10 scale
Summary of the method: as §1

[3] = test system: corn; test: as above; format: in vivo, Zea mays; conditions: 0 to 10 scale
Summary of the method: as §1

[4] = test system: sugar beet; test: as above; format: in vivo, Beta vulgaris; conditions: 0 to 10 scale
Summary of the method: as §1

[5] = test system: wild buckwheat; test: as above; format: in vivo, Polygonum convolvulus; conditions: 0 to 10 scale
Summary of the method: as §1

[6] = test system: bedstraw; test: Test C preemergence/postemergence greenhouse plant response rating 0 to 100; format: in vivo, Galium aparine; conditions: for Plant response rating, Bedstraw: 0 to 100 scale
Text: (§2) The compounds evaluated in this test were formulated in a non-phytoxic solvent and applied to the soil surface before plant seedlings emerged (preemergence application), to water that covered the soil surface (flood application), and to plants that were in the one-to-four leaf stage (postemergence application). A sandy loam soil was used for the preemergence and postemergence tests, while a silt loam soil was used in the flood test. Water depth was approximately 2.5 cm for the flood test and was maintained at this level for the duration of the test. Plant species in the preemergence and postemergence tests consisted of barley (Hordeum vulgare), bedstraw (Galium aparine), blackgrass (Alopecurus myosuroides), chickweed (Stellaria media), corn (Zea mays), cotton (Gossypium hirsutum), crabgrass (Digitaria sanguinalis), downy brome (Bromus tectorum), giant foxtail (Setaria faberii), lambsquarters (Chenopodium album), morningglory (Ipomoea hederacea), pigweed ([…]), rape (Brassica napus), ryegrass (Lolium multiflorum), sorghum (Sorghum bicolor), soybean (Glycine max), speedwell (Veronica persica), sugar beet (Beta vulgaris), velvetleaf (Abutilon theophrasti), wheat (Triticum aestivum), wild buckwheat (Polygonum convolvulus), and wild oat (Avena fatua). All plant species were planted one day before application of the compound for the preemergence portion-of this test. Plantings of these species were adjusted to produce plants of appropriate size for the post-emergence portion of the test. […] All plant species were grown using normal greenhouse practices. Visual evaluations of injury expressed on treated plants, when compared to untreated controls, were recorded approximately fourteen to twenty one days after application of the test compound. […] A dash (-) response means no test result.

[7] = test system: corn; test: as above; format: in vivo, Zea mays; conditions: for Plant response rating, Corn: 0 to 100 scale
Text: as §2

[8] = test system: cotton; test: as above; format: in vivo, Gossypium hirsutum; conditions: for Plant response rating, Cotton: 0 to 100 scale
Text: as §2

[9] = test system: downy brome; test: as above; format: in vivo, Bromus tectorum; conditions: for Plant response rating Downy Brome: 0 to 100 scale
Text: as §2

[10] = test system: giant foxtail; test: as above; format: in vivo, Setaria faberii; conditions: for Plant response rating, Giant foxtail: 0 to 100 scale
Text: as §2

[11] = test system: morningglory; test: as above; format: in vivo, Ipomoea hederacea; conditions: for Plant response rating, Morningglory: 0 to 100 scale
Text: as §2

[12] = test system: sorghum; test: as above; format: in vivo, Sorghum bicolor; conditions: for Plant response rating, Sorghum: 0 to 100 scale
Text: as §2

[13] = test system: velvetleaf; test: as above; format: in vivo, Abutilon theophrasti; conditions: for Plant response rating, Velvetleaf: 0 to 100 scale
Text: as §2

[14] = test system: wheat; test: as above; format: in vivo, Triticum aestivum; conditions: for Plant response rating, Wheat: 0 to 100 scale
Text: as §2

[15] = test system: wild oat; test: as above; format: in vivo, Avena fatua; conditions: for Plant response rating, Wild oat: 0 to 100 scale
Text: as §2

C#CCN1C(=O)COc2cc(F)c(-c3nn4c(c3Br)CCCC4)cc21 [Compound 56]
30: Plant response rating (0 to 100), Corn ([7]; POSTEMERGENCE, Rate 4 g/ha) | Plant response rating (0 to 100), Giant foxtail ([10]; Rate 16 g/ha, POSTEMERGENCE) | Plant response rating (0 to 100), Sorghum ([12]; POSTEMERGENCE, Rate 4 g/ha) | Plant response rating (0 to 100), Wheat ([14]; POSTEMERGENCE, Rate 1 g/ha) | Plant response rating (0 to 100), Wild oat ([15]; POSTEMERGENCE, Rate 1 g/ha)
50: Plant response rating, Corn ([7]; POSTEMERGENCE, 62 g/ha) | Plant response rating (0 to 100), Downy Brome ([9]; POSTEMERGENCE, Rate 4 g/ha) | Plant response rating (0 to 100), Morningglory ([11]; POSTEMERGENCE, Rate 1 g/ha) | Plant response rating (0 to 100), Sorghum ([12]; Rate 16 g/ha, POSTEMERGENCE) | Plant response rating (0 to 100), Wheat ([14]; POSTEMERGENCE, Rate 4 g/ha) | Plant response rating (0 to 100), Wild oat ([15]; Rate 16 g/ha, POSTEMERGENCE)
80: Plant response rating (0 to 100), Bedstraw ([6]; POSTEMERGENCE, Rate 4 g/ha)
60: Plant response rating (0 to 100), Downy Brome ([9]; Rate 16 g/ha, POSTEMERGENCE) | Plant response rating, Sorghum ([12]; POSTEMERGENCE, 62 g/ha) | Plant response rating, Wheat ([14]; POSTEMERGENCE, 62 g/ha) | Plant response rating (0 to 100), Wheat ([14]; Rate 16 g/ha, POSTEMERGENCE) | Plant response rating, Wild oat ([15]; POSTEMERGENCE, 62 g/ha)
10: Plant response rating, Bedstraw ([1]; POSTEMERGENCE, Rate 50 g/ha) | Plant response rating, Chickweed ([2]; POSTEMERGENCE, Rate 50 g/ha) | Plant response rating, Chickweed ([2]; PREEMERGENCE, Rate 50 g/ha) | Plant response rating, Sugar beet ([4]; POSTEMERGENCE, Rate 10 g/ha) | Plant response rating, Sugar beet ([4]; POSTEMERGENCE, Rate 50 g/ha) | Plant response rating, Wild buckwheat ([5]; POSTEMERGENCE, Rate 10 g/ha) | Plant response rating, Wild buckwheat ([5]; POSTEMERGENCE, Rate 50 g/ha) | Plant response rating (0 to 100), Giant foxtail ([10]; POSTEMERGENCE, Rate 1 g/ha) | Plant response rating (0 to 100), Giant foxtail ([10]; POSTEMERGENCE, Rate 4 g/ha)
0: Plant response rating, Corn ([3]; PREEMERGENCE, Rate 50 g/ha)
9: Plant response rating, Bedstraw ([1]; PREEMERGENCE, Rate 50 g/ha) | Plant response rating, Chickweed ([2]; POSTEMERGENCE, Rate 10 g/ha) | Plant response rating, Chickweed ([2]; PREEMERGENCE, Rate 10 g/ha) | Plant response rating, Sugar beet ([4]; PREEMERGENCE, Rate 50 g/ha) | Plant response rating, Wild buckwheat ([5]; PREEMERGENCE, Rate 50 g/ha)
70: Plant response rating (0 to 100), Bedstraw ([6]; POSTEMERGENCE, Rate 1 g/ha) | Plant response rating Downy Brome ([9]; POSTEMERGENCE, 62 g/ha)
40: Plant response rating (0 to 100), Corn ([7]; Rate 16 g/ha, POSTEMERGENCE) | Plant response rating (0 to 100), Downy Brome ([9]; POSTEMERGENCE, Rate 1 g/ha) | Plant response rating, Giant foxtail ([10]; POSTEMERGENCE, 62 g/ha) | Plant response rating (0 to 100), Wild oat ([15]; POSTEMERGENCE, Rate 4 g/ha)
20: Plant response rating (0 to 100), Corn ([7]; POSTEMERGENCE, Rate 1 g/ha) | Plant response rating (0 to 100), Sorghum ([12]; POSTEMERGENCE, Rate 1 g/ha)
8: Plant response rating, Bedstraw ([1]; POSTEMERGENCE, Rate 10 g/ha)
95: Plant response rating (0 to 100), Bedstraw ([6]; Rate 16 g/ha, POSTEMERGENCE)
3: Plant response rating, Corn ([3]; POSTEMERGENCE, Rate 50 g/ha)
4: Plant response rating, Bedstraw ([1]; PREEMERGENCE, Rate 10 g/ha)
100: Plant response rating, Bedstraw ([6]; POSTEMERGENCE, 62 g/ha) | Plant response rating, Cotton ([8]; POSTEMERGENCE, 62 g/ha) | Plant response rating (0 to 100), Cotton ([8]; POSTEMERGENCE, Rate 1 g/ha) | Plant response rating (0 to 100), Cotton ([8]; POSTEMERGENCE, Rate 4 g/ha) | Plant response rating (0 to 100), Cotton ([8]; Rate 16 g/ha, POSTEMERGENCE) | Plant response rating, Morningglory ([11]; POSTEMERGENCE, 62 g/ha) | Plant response rating (0 to 100), Morningglory ([11]; POSTEMERGENCE, Rate 4 g/ha) | Plant response rating (0 to 100), Morningglory ([11]; Rate 16 g/ha, POSTEMERGENCE) | Plant response rating, Velvetleaf ([13]; POSTEMERGENCE, 62 g/ha) | Plant response rating (0 to 100), Velvetleaf ([13]; POSTEMERGENCE, Rate 1 g/ha) | Plant response rating (0 to 100), Velvetleaf ([13]; POSTEMERGENCE, Rate 4 g/ha) | Plant response rating (0 to 100), Velvetleaf ([13]; Rate 16 g/ha, POSTEMERGENCE)

CCCN1C(=O)COc2cc(F)c(-c3nn4c(c3Br)CCCC4)cc21 [Compound 63]
40: Plant response rating, Morningglory ([11]; PREEMERGENCE, 62 g/ha)
85: Plant response rating, Wild oat ([15]; PREEMERGENCE, 250 g/ha)
2: Plant response rating, Corn ([3]; POSTEMERGENCE, Rate 10 g/ha) | Plant response rating, Corn ([3]; POSTEMERGENCE, Rate 50 g/ha)
5: Plant response rating, Chickweed ([2]; POSTEMERGENCE, Rate 10 g/ha)
50: Plant response rating Downy Brome ([9]; PREEMERGENCE, 250 g/ha) | Plant response rating, Wheat ([14]; PREEMERGENCE, 250 g/ha)
30: Plant response rating, Corn ([7]; PREEMERGENCE, 250 g/ha)
0: Plant response rating, Chickweed ([2]; PREEMERGENCE, Rate 10 g/ha) | Plant response rating, Corn ([3]; PREEMERGENCE, Rate 50 g/ha) | Plant response rating (0 to 100), Bedstraw ([6]; PREEMERGENCE, Rate 4 g/ha) | Plant response rating (0 to 100), Corn ([7]; PREEMERGENCE, Rate 4 g/ha) | Plant response rating (0 to 100), Corn ([7]; Rate 16 g/ha, PREEMERGENCE) | Plant response rating (0 to 100), Cotton ([8]; PREEMERGENCE, Rate 4 g/ha) | Plant response rating (0 to 100), Cotton ([8]; Rate 16 g/ha, PREEMERGENCE) | Plant response rating (0 to 100), Downy Brome ([9]; PREEMERGENCE, Rate 4 g/ha) | Plant response rating (0 to 100), Downy Brome ([9]; Rate 16 g/ha, PREEMERGENCE) | Plant response rating (0 to 100), Giant foxtail ([10]; PREEMERGENCE, Rate 4 g/ha) | Plant response rating (0 to 100), Giant foxtail ([10]; Rate 16 g/ha, PREEMERGENCE) | Plant response rating (0 to 100), Morningglory ([11]; PREEMERGENCE, Rate 4 g/ha) | Plant response rating (0 to 100), Sorghum ([12]; PREEMERGENCE, Rate 4 g/ha) | Plant response rating (0 to 100), Sorghum ([12]; Rate 16 g/ha, PREEMERGENCE) | Plant response rating (0 to 100), Velvetleaf ([13]; PREEMERGENCE, Rate 4 g/ha) | Plant response rating (0 to 100), Wheat ([14]; PREEMERGENCE, Rate 4 g/ha) | Plant response rating (0 to 100), Wheat ([14]; Rate 16 g/ha, PREEMERGENCE) | Plant response rating (0 to 100), Wild oat ([15]; PREEMERGENCE, Rate 4 g/ha) | Plant response rating (0 to 100), Wild oat ([15]; Rate 16 g/ha, PREEMERGENCE)
6: Plant response rating, Bedstraw ([1]; POSTEMERGENCE, Rate 10 g/ha)
10: Plant response rating, Bedstraw ([1]; PREEMERGENCE, Rate 50 g/ha) | Plant response rating, Sugar beet ([4]; POSTEMERGENCE, Rate 10 g/ha) | Plant response rating, Sugar beet ([4]; POSTEMERGENCE, Rate 50 g/ha) | Plant response rating, Sugar beet ([4]; PREEMERGENCE, Rate 50 g/ha) | Plant response rating, Wild buckwheat ([5]; POSTEMERGENCE, Rate 50 g/ha) | Plant response rating, Wild buckwheat ([5]; PREEMERGENCE, Rate 50 g/ha) | Plant response rating (0 to 100), Bedstraw ([6]; Rate 16 g/ha, PREEMERGENCE) | Plant response rating (0 to 100), Morningglory ([11]; Rate 16 g/ha, PREEMERGENCE)
75: Plant response rating, Giant foxtail ([10]; PREEMERGENCE, 250 g/ha)
70: Plant response rating, Cotton ([8]; PREEMERGENCE, 250 g/ha)
9: Plant response rating, Chickweed ([2]; POSTEMERGENCE, Rate 50 g/ha) | Plant response rating, Chickweed ([2]; PREEMERGENCE, Rate 50 g/ha) | Plant response rating, Wild buckwheat ([5]; POSTEMERGENCE, Rate 10 g/ha)
8: Plant response rating, Bedstraw ([1]; POSTEMERGENCE, Rate 50 g/ha)
20: Plant response rating, Corn ([7]; PREEMERGENCE, 62 g/ha) | Plant response rating, Cotton ([8]; PREEMERGENCE, 62 g/ha) | Plant response rating Downy Brome ([9]; PREEMERGENCE, 62 g/ha) | Plant response rating, Giant foxtail ([10]; PREEMERGENCE, 62 g/ha) | Plant response rating, Sorghum ([12]; PREEMERGENCE, 250 g/ha) | Plant response rating (0 to 100), Velvetleaf ([13]; Rate 16 g/ha, PREEMERGENCE)
4: Plant response rating, Bedstraw ([1]; PREEMERGENCE, Rate 10 g/ha)
100: Plant response rating, Bedstraw ([6]; PREEMERGENCE, 62 g/ha) | Plant response rating, Bedstraw ([6]; PREEMERGENCE, 250 g/ha) | Plant response rating, Morningglory ([11]; PREEMERGENCE, 250 g/ha) | Plant response rating, Velvetleaf ([13]; PREEMERGENCE, 250 g/ha)
